Data published in patent publication US10517889B2, “Modulators of SMAD7 expression” (Ionis Pharmaceuticals, Inc., priority 2017, dated 2019).
Strand notation (5' to 3'): a small letter for the sugar, then the base; units joined by * are phosphorothioate-linked, units joined directly phosphodiester-linked; [ ] holds rarer units or linkages, { } end groups; capitals alone tell only the bases. k = constrained ethyl (cEt); [5mC] = 5-methylcytosine; d = 2'-deoxy (DNA)

The substances below were run on human SMAD7 mRNA (assay: Antisense inhibition of human SMAD7 mRNA expression in Hep3B cells by 3-10-3 cEt gapmers, 10,000 nM, electroporation (Example 2)). Settings: SMAD7 mRNA, Hep3B cells, electroporation with 10,000 nM antisense oligonucleotide, approximately 24 hours, primer probe set RTS5062, relative to untreated control cells.
Assay type: cell-based
Summary of the method: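 Hep3B, 20,000 cells/well; electroporation, 10,000 nM ASO; ~24 h. Readout: SMAD7 mRNA by qRT-PCR (RTS5062), RIBOGREEN-normalised; % inhibition vs untreated.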

Row | Substance | % Inhibition
1 | 829865 (antisense kG*kG*k[5mC]*dG*dG*dA*d[5mC]*dT*dT*dG*dA*dT*dG*kA*kA*kG) [compound 829865] | 30%
2 | 829866 (antisense kG*kT*kG*dG*d[5mC]*dG*dG*dA*d[5mC]*dT*dT*dG*dA*kT*kG*kA) [compound 829866] | 10%
3 | 829867 (antisense kT*kG*kT*dG*dG*d[5mC]*dG*dG*dA*d[5mC]*dT*dT*dG*kA*kT*kG) [compound 829867] | 22%
4 | 829868 (antisense kA*kG*kT*dG*dT*dG*dG*d[5mC]*dG*dG*dA*d[5mC]*dT*kT*kG*kA) [compound 829868] | 52%
5 | 829869 (antisense k[5mC]*kA*kG*dT*dG*dT*dG*dG*d[5mC]*dG*dG*dA*d[5mC]*kT*kT*kG) [compound 829869] | 37%
6 | 829870 (antisense k[5mC]*k[5mC]*kA*dG*dT*dG*dT*dG*dG*d[5mC]*dG*dG*dA*k[5mC]*kT*kT) [compound 829870] | 19%
7 | 829871 (antisense kG*kT*k[5mC]*d[5mC]*dA*dG*dT*dG*dT*dG*dG*d[5mC]*dG*kG*kA*k[5mC]) [compound 829871] | 1%
8 | 829872 (antisense kT*kG*kT*d[5mC]*d[5mC]*dA*dG*dT*dG*dT*dG*dG*d[5mC]*kG*kG*kA) [compound 829872] | 50%
9 | 829873 (antisense kT*kT*kG*dT*d[5mC]*d[5mC]*dA*dG*dT*dG*dT*dG*dG*k[5mC]*kG*kG) [compound 829873] | 52%
10 | 829874 (antisense kG*kT*kT*dG*dT*d[5mC]*d[5mC]*dA*dG*dT*dG*dT*dG*kG*k[5mC]*kG) [compound 829874] | 43%
11 | 829875 (antisense k[5mC]*kG*kG*dG*dT*dT*dG*dT*d[5mC]*d[5mC]*dA*dG*dT*kG*kT*kG) [compound 829875] | 52%
12 | 829876 (antisense k[5mC]*k[5mC]*kG*dG*dG*dT*dT*dG*dT*d[5mC]*d[5mC]*dA*dG*kT*kG*kT) [compound 829876] | 30%
13 | 829877 (antisense kT*k[5mC]*k[5mC]*dG*dG*dG*dT*dT*dG*dT*d[5mC]*d[5mC]*dA*kG*kT*kG) [compound 829877] | 42%
14 | 829878 (antisense kG*kA*kG*dT*d[5mC]*d[5mC]*dG*dG*dG*dT*dT*dG*dT*k[5mC]*k[5mC]*kA) [compound 829878] | 18%
15 | 829879 (antisense kT*kG*kG*dA*dG*dT*d[5mC]*d[5mC]*dG*dG*dG*dT*dT*kG*kT*k[5mC]) [compound 829879] | 29%
16 | 829880 (antisense kT*k[5mC]*k[5mC]*dT*dG*dG*dA*dG*dT*d[5mC]*d[5mC]*dG*dG*kG*kT*kT) [compound 829880] | 32%
17 | 829881 (antisense k[5mC]*kG*kT*d[5mC]*d[5mC]*dT*dG*dG*dA*dG*dT*d[5mC]*d[5mC]*kG*kG*kG) [compound 829881] | 39%
18 | 829882 (antisense kA*kG*kG*d[5mC]*dT*dG*dT*dA*d[5mC]*dG*d[5mC]*d[5mC]*dT*kT*k[5mC]*kT) [compound 829882] | 3%
19 | 829883 (antisense k[5mC]*kA*kG*dG*d[5mC]*dT*dG*dT*dA*d[5mC]*dG*d[5mC]*d[5mC]*kT*kT*k[5mC]) [compound 829883] | 0%

Row | Substance | % Inhibition
20 | 829884 (antisense kT*kG*k[5mC]*dA*dG*dG*d[5mC]*dT*dG*dT*dA*d[5mC]*dG*k[5mC]*k[5mC]*kT) [compound 829884] | 24%
21 | 829885 (antisense k[5mC]*k[5mC]*kG*d[5mC]*dT*dG*d[5mC]*dA*dG*dG*d[5mC]*dT*dG*kT*kA*k[5mC]) [compound 829885] | 31%
22 | 829886 (antisense kG*kT*kG*dG*dT*d[5mC]*dA*dT*dT*dG*dG*dG*d[5mC]*k[5mC]*kG*k[5mC]) [compound 829886] | 6%
23 | 829887 (antisense k[5mC]*kG*kT*dG*dG*dT*d[5mC]*dA*dT*dT*dG*dG*dG*k[5mC]*k[5mC]*kG) [compound 829887] | 47%
24 | 829888 (antisense kG*kT*k[5mC]*d[5mC]*dA*d[5mC]*dG*dG*d[5mC]*dT*dG*d[5mC]*dT*kG*k[5mC]*kA) [compound 829888] | 47%
25 | 829889 (antisense k[5mC]*kG*kT*d[5mC]*d[5mC]*dA*d[5mC]*dG*dG*d[5mC]*dT*dG*d[5mC]*kT*kG*k[5mC]) [compound 829889] | 48%
26 | 829890 (antisense kA*kA*kG*d[5mC]*d[5mC]*d[5mC]*dG*dT*d[5mC]*d[5mC]*dA*d[5mC]*dG*kG*k[5mC]*kT) [compound 829890] | 0%
27 | 829891 (antisense kA*kT*k[5mC]*dT*dG*d[5mC]*dA*d[5mC]*dG*dG*dT*dA*dA*kA*kG*k[5mC]) [compound 829891] | 25%
28 | 829892 (antisense kG*kA*kT*d[5mC]*dT*dG*d[5mC]*dA*d[5mC]*dG*dG*dT*dA*kA*kA*kG) [compound 829892] | 32%
29 | 829893 (antisense kT*kG*kA*dT*d[5mC]*dT*dG*d[5mC]*dA*d[5mC]*dG*dG*dT*kA*kA*kA) [compound 829893] | 14%
30 | 829894 (antisense kG*k[5mC]*kT*dG*dA*dT*d[5mC]*dT*dG*d[5mC]*dA*d[5mC]*dG*kG*kT*kA) [compound 829894] | 41%
31 | 829895 (antisense kT*k[5mC]*kA*d[5mC]*dA*dA*dA*dG*d[5mC]*dT*dG*dA*dT*k[5mC]*kT*kG) [compound 829895] | 37%
32 | 829896 (antisense k[5mC]*kG*kG*dG*dT*dG*dT*dA*dG*d[5mC]*dA*d[5mC]*dT*kG*kG*k[5mC]) [compound 829896] | 44%
33 | 829897 (antisense kG*k[5mC]*kG*dG*dG*dT*dG*dT*dA*dG*d[5mC]*dA*d[5mC]*kT*kG*kG) [compound 829897] | 40%
34 | 829898 (antisense kT*kG*kG*d[5mC]*dG*dG*dG*dT*dG*dT*dA*dG*d[5mC]*kA*k[5mC]*kT) [compound 829898] | 31%
35 | 829899 (antisense kA*k[5mC]*kG*dG*dG*d[5mC]*dA*dG*d[5mC]*dT*dG*d[5mC]*dT*kG*kA*kT) [compound 829899] | 20%
36 | 829900 (antisense k[5mC]*kA*k[5mC]*dG*dG*dG*d[5mC]*dA*dG*d[5mC]*dT*dG*d[5mC]*kT*kG*kA) [compound 829900] | 0%
37 | 829901 (antisense kA*kG*k[5mC]*dA*d[5mC]*dG*dG*dG*d[5mC]*dA*dG*d[5mC]*dT*kG*k[5mC]*kT) [compound 829901] | 10%
38 | 829902 (antisense k[5mC]*kA*kG*d[5mC]*dA*d[5mC]*dG*dG*dG*d[5mC]*dA*dG*d[5mC]*kT*kG*k[5mC]) [compound 829902] | 0%

Row | Substance | % Inhibition
39 | 829903 (antisense k[5mC]*kT*kG*dT*dT*dG*dA*dA*dG*dA*dT*dG*dA*k[5mC]*k[5mC]*kT) [compound 829903] | 25%
40 | 829904 (antisense kG*k[5mC]*kT*dG*dT*dT*dG*dA*dA*dG*dA*dT*dG*kA*k[5mC]*k[5mC]) [compound 829904] | 21%
41 | 829905 (antisense k[5mC]*kG*kG*d[5mC]*dT*dG*dT*dT*dG*dA*dA*dG*dA*kT*kG*kA) [compound 829905] | 20%
42 | 829906 (antisense k[5mC]*k[5mC]*kG*dG*d[5mC]*dT*dG*dT*dT*dG*dA*dA*dG*kA*kT*kG) [compound 829906] | 0%
43 | 829907 (antisense kA*k[5mC]*k[5mC]*dG*dG*d[5mC]*dT*dG*dT*dT*dG*dA*dA*kG*kA*kT) [compound 829907] | 23%
44 | 829908 (antisense k[5mC]*kT*kA*d[5mC]*d[5mC]*dG*dG*d[5mC]*dT*dG*dT*dT*dG*kA*kA*kG) [compound 829908] | 1%
45 | 829909 (antisense k[5mC]*kG*kG*d[5mC]*dT*dA*d[5mC]*d[5mC]*dG*dG*d[5mC]*dT*dG*kT*kT*kG) [compound 829909] | 34%
46 | 829910 (antisense kG*kA*kG*dT*dT*dT*dG*d[5mC]*dA*dT*dG*dA*dA*kA*kA*kG) [compound 829910] | 49%
47 | 829911 (antisense k[5mC]*kG*kA*d[5mC]*d[5mC]*dA*dA*dA*dG*dA*dG*dT*dT*kT*kG*k[5mC]) [compound 829911] | 52%
48 | 829912 (antisense kA*kA*k[5mC]*dG*dA*d[5mC]*d[5mC]*dA*dA*dA*dG*dA*dG*kT*kT*kT) [compound 829912] | 24%
49 | 829913 (antisense k[5mC]*k[5mC]*kT*dT*dG*dG*dG*dT*dT*dA*dT*dG*dA*k[5mC]*kG*kG) [compound 829913] | 40%
50 | 829914 (antisense kA*k[5mC]*k[5mC]*dT*dT*dG*dG*dG*dT*dT*dA*dT*dG*kA*k[5mC]*kG) [compound 829914] | 35%
51 | 829915 (antisense kG*kG*kT*dA*d[5mC]*d[5mC]*dT*dT*dG*dG*dG*dT*dT*kA*kT*kG) [compound 829915] | 22%
52 | 829916 (antisense kG*kA*kA*dG*dA*dG*dT*dT*dA*dG*dG*dT*dG*kT*k[5mC]*kA) [compound 829916] | 33%
53 | 829917 (antisense kA*kG*kT*dG*dT*dA*dT*dG*dA*dG*dT*dT*dG*kT*kA*kG) [compound 829917] | 45%
54 | 829918 (antisense kG*kA*kG*dT*dG*dT*dA*dT*dG*dA*dG*dT*dT*kG*kT*kA) [compound 829918] | 53%
55 | 829919 (antisense k[5mC]*kG*kA*dG*dT*dG*dT*dA*dT*dG*dA*dG*dT*kT*kG*kT) [compound 829919] | 47%
56 | 829920 (antisense kA*kT*kA*d[5mC]*dG*dA*dG*dT*dG*dT*dA*dT*dG*kA*kG*kT) [compound 829920] | 30%
